Assay results reported in ChEMBL document CHEMBL1139558, “Isolation, characterization and antiplasmodial activity of steroidal alkaloids from Funtumia elastica (Preuss) Stapf” (Bioorg Med Chem Lett, 2005).

Experiments:
[1] = organism: Rattus norvegicus; assay: Selectivity Index is expressed as the ratio of cytotoxicity (IC50) against rat L-6 cell line to that of antiplasmodial activity (IC50) of chloroquine-resistant strain FcB1 of Plasmodium falciparum; assay type: functional
[2] = tested on: Plasmodium falciparum; assay: In vitro antiplasmodial activity for chloroquine-resistant Plasmodium falciparum FcB1; assay type: functional, organism-based
[3] = Cytotoxicity against rat L-6 cell line; assay type: functional, cell-based; details: L6

| SMILES | Selectivity index [1] | IC50 [2] [µM] | IC50 [3] [µM] |
| --- | --- | --- | --- |
| CC(C)=CCC(=O)O[C@@H]1C[C@H]2[C@@H](CC=C3C[C@@H](N(C)C)CC[C@@]32C)[C@@H]2CC[C@@H]3[C@H](C)N(C)C[C@]312 | 4.5 | 1.13 | 5.13 |
| CN[C@H]1CC[C@@]2(C)C(=CC[C@H]3[C@@H]4CC[C@@H]5[C@H](C)N(C)C[C@@]54CC[C@@H]32)C1 [ISOCONESSIMINE] | 10.8 | 3.39 | 36.6 |
| CN[C@H]1CC[C@@]2(C)C(=CC[C@H]3[C@@H]4CC[C@@H]5[C@H](C)N(C)C[C@@]54[C@H](OC(=O)CC=C(C)C)C[C@@H]32)C1 | 7.7 | 0.97 | 7.49 |
| C[C@H]1[C@H]2CC[C@H]3[C@@H]4CC=C5C[C@@H](N(C)C)CC[C@]5(C)[C@H]4CC[C@]23CN1C [CONESSINE] | 14 | 1.04 | 14.6 |
